# Measurements reported in patent US20240315993A1, “ANTIPARASITIC COMPOUNDS” (Intervet Inc., priority 2021, published 2024).
# Columns and labels:
# [1] = system: larvae of Rhipicephalus microplus isolates with known resistance profiles; experiment: Tick larvae resistance assay (larval immersion test, LIT)
# Description: A tick resistance assay (i.e., larval immersion test, LIT) was carried out using larvae of several Rhipicephalus microplus isolates with known resistance profiles (i.e.: fully susceptible; resistant to dieldrin, coumaphos, DDT, chlorpyriphos, flumethrin, cypermethrin, amitraz, fluazuron).
# Tick larvae (Rhipicephalus microplus) were immersed for approximately 3 minutes in test compound solution. Tick mortality was assessed approximately 24 hours after contact exposure. The vitality of used parasites was confirmed in negative control groups (i.e., an untreated control and a solvent control).
# [2] = system: Rhipicephalus microplus tick larvae; experiment: Tick larvae contact assay; conditions: read-out: Tick inhibition (% of damage+dead ticks)
# Description: Tick larvae (Rhipicephalus microplus) were immersed for approximately 3 minutes in declining concentrations of a test compound (dissolved in a DMSO-emulsifier-deionized water mixture). Tick inhibition (% of damage+dead ticks per test concentration) was assessed approximately 24 hours after contact exposure. The vitality of used parasites was confirmed in negative control groups (i.e. an untreated control and a solvent control).
# [3] = system: Adult fleas (Ctenocephalides felis); experiment: Flea contact assay; conditions: 48 h, read-out: flea inhibition (% of dead+damaged fleas)
# Description: (§1) Adult fleas (Ctenocephalides felis) were exposed to filter paper impregnated with declining concentrations of a test compound (dissolved in a DMSO-emulsifier-deionized water mixture). After approximately 48 hours of continuous contact exposure, flea inhibition (% of dead+damaged fleas per test concentration) was assessed. The vitality of used parasites was confirmed in negative control groups (i.e., an untreated control and a solvent control).
# [4] = system: Fly larvae I (Lucilia cuprina); experiment: Fly larvae contact/feeding assay; conditions: 48 h, read-out: Inhibition of fly larvae development
# Description: Fly larvae I (Lucilia cuprina) were grown in medium spiked with declining concentrations of a test compound (dissolved in a DMSO-emulsifier-deionized water mixture). Inhibition of fly larvae development (%) was assessed after approximately 48 hours of continuous exposure. The vitality of used parasites was confirmed in negative control groups (i.e., an untreated control and a solvent control).
# [5] = system: Adult fleas (Ctenocephalides felis); experiment: Flea feeding assay; conditions: 48 h, read-out: flea inhibition (% of dead+damaged fleas)
# Description: as §1, with “felis) of defined age” for “felis)”, “fed on artificial membranes with blood spiked” for “exposed to filter paper impregnated”, “DMSO-emulsifier-blood” for “DMSO-emulsifier-deionized water”, “feeding,” for “contact exposure,”, “(i.e., %” for “(%”
# [6] = system: bed bugs (Cimex lectularius); experiment: Guinea pig - efficacy against bed bug; type: in vivo
# Method in brief: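 Guinea pigs given 5 mg/kg test compound orally (gavage) or s.c. in 10% DMF/emulsifier plus 90% water for injection, with local co-infestations of Ornithodoros moubata juveniles and Cimex lectularius at several post-treatment times. Engorged parasites scored dead/damaged about 24 h after collection; % inhibition versus pretreatment baseline by modified Schneider-Orelli formula.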
# [7] = In vitro test of rain fastness; type: physicochemical; conditions: 5% solution in Miglyol 840 on rabbit hide, 4 hours, then 30 minutes in water
# Description: In addition to good absorbance, the composition according to the invention has a high resistance to water. After applying a 5% solution of Compound 453 in Miglyol 840 to rabbit hide and allowing to sit for 4 hours, the sample was soaked in water for 30 minutes.
# [8] = system: Mobile stages of sea lice (pre-adults, adults of Caligus rogercresseyi); experiment: Adult Caligus rogercresseyi sea lice contact assay
# Description: Mobile stages of sea lice (i.e., pre-adults, adults of Caligus rogercresseyi) were exposed to seawater spiked with declining concentrations of a test compound (dissolved in a PEG sea-water mixture). Sea lice inhibition (% of dead+damaged sea lice) was assessed after approximately 1, 24 and 48 hours of continuous exposure in comparison to a negative (solvent) and untreated control group.
# [9] = system: mobile sea lice stages of Lepeophtheirus salmonis-isolates with known resistance profiles; experiment: Sea lice resistance assay
# Description: A sea lice resistance assay was carried out using mobile sea lice stages (i.e., pre-adults, adults) of several Lepeophtheirus salmonis-isolates with known resistance profiles (i.e.: fully susceptible, resistant to azametiphos (OP), emamectin benzoate (ML), deltamethrin (SP). Sea lice were exposed to seawater spiked with declining concentrations of a test compound (dissolved in a PEG300/sea-water mixture). Sea lice inhibition (% of dead+damaged sea lice) was assessed after approximately 1, 24 and 48 hour/s of continuous exposure in comparison to a negative (solvent) control group.
# Lepeophtheirus salmonis = experiment: Salmon - in vivo efficacy against sea lice using gavage administration; conditions: 5 mg/kg once by gavage, counted around day 28
# Method in brief: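 Salmon given a single oral gavage of 5 mg/kg in 5% DMSO/95% fish oil on day 0, with vehicle controls. L. salmonis copepodid infestations around days −28, −3 and 17; lice counted by stage around day 28, efficacy as % reduction versus control by Abbott's formula.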
# [10] = 5 mg/kg subcutaneous, after 7 days
# [11] = 5 mg/kg subcutaneous, after 10 days
compound,measurement,setting,value
O=C(Nc1ccc(F)cc1F)c1cc(NC(=O)[C@H]2[C@H](c3ccc(F)c(Cl)c3)C2(Cl)Cl)ccc1Cl [Compound 197],LC50,"[1]; isolate resistant to Coumaphos, Flumethrin, Cypermethrin",0.343 ppm
same,LC50,"[1]; isolate resistant to Coumaphos, Flumethrin, Cypermethrin, Amitraz",0.375 ppm
same,LC50,"[1]; isolate resistant to DDT, Dieldrin, Coumaphos",0.346 ppm
same,LC50,"[1]; isolate resistant to DDT, Dieldrin, Coumaphos, Chlorpyriphos",0.335 ppm
same,LC50,"[1]; isolate resistant to Dieldrin, Coumaphos, Fluazuron",0.270 ppm
same,LC50,[1]; isolate: Fully susceptible,0.288 ppm
same,inhibition at 25 µM,[2],≥ 80%
same,inhibition at 49 µM,[2],80%
same,inhibition at 388 µM,[2],80%
same,inhibition at 100 ppm,[2],80%
same,inhibition at 1000 ppm,[3],80%
same,inhibition at 100 ppm,[4],80%
same,inhibition at 1 ppm,[5],80%
same,"activity against bed bugs (≥80% inhibition, killed+damaged)","[6]; 5 mg/kg oral, Day 0",immediate activity
same,"activity against bed bugs (≥80% inhibition, killed+damaged)","[6]; 5 mg/kg oral, after 7 days",activity
same,"activity against bed bugs (≥80% inhibition, killed+damaged)","[6]; 5 mg/kg subcutaneous, Day 0",immediate activity
same,"activity against bed bugs (≥80% inhibition, killed+damaged)",[6]; [10],activity
same,"activity against bed bugs (≥80% inhibition, killed+damaged)",[6]; [11],activity
O=C(Nc1ncc(F)cc1F)c1cc(NC(=O)[C@H]2[C@H](c3cc(Cl)cc(Cl)c3)C2(Cl)Cl)ccc1Cl [Compound 453],presence of Compound 453 in the water,[7],below the detection limit
same,weight loss after soaking in water,[7],4%
same,EC50,[8]; after 24 hours,0.072 ppb
same,EC50,[8]; after 48 hours,0.035 ppb
same,effectiveness against sensitive isolate and multi-resistant isolate,[9],equally effective
same,EC50,"[9]; multi-resistant isolate, after 24 hours",1.96 ppb
same,EC50,"[9]; multi-resistant isolate, after 48 hours",0.64 ppb
same,EC50,"[9]; sensitive isolate, after 24 hours",1.20 ppb
same,EC50,"[9]; sensitive isolate, after 48 hours",0.29 ppb
same,prophylactic efficacy at re-infestation on Day 17 (% reduction vs control),Lepeophtheirus salmonis,100%
same,"activity against bed bugs (≥80% inhibition, killed+damaged)","[6]; 5 mg/kg oral, Day 0",immediate activity
same,"activity against bed bugs (≥80% inhibition, killed+damaged)","[6]; 5 mg/kg oral, after 7 days",activity
same,"activity against bed bugs (≥80% inhibition, killed+damaged)","[6]; 5 mg/kg oral, after 10 days",activity
same,"activity against bed bugs (≥80% inhibition, killed+damaged)","[6]; 5 mg/kg subcutaneous, Day 0",immediate activity
same,"activity against bed bugs (≥80% inhibition, killed+damaged)",[6]; [10],activity
same,"activity against bed bugs (≥80% inhibition, killed+damaged)",[6]; [11],activity
same,effective to control bed bugs,"[6]; 5 mg/kg, at least until Day 10, both administration routes (oral, subcutaneous)",100%
